Entries after “also recorded” stand apart in the source; their conditions may differ.
How the values were obtained:
lung cancer cells = experiment: Cell proliferation (CyQuant), lung cancer cells overall; type: cell-based
Excerpt: (FIG. 5A) Chemical structure of compounds 12, an analogue of 11 lacking the terminal methyl alcohol functional group. (FIG. 5B) Predicted binding pose of compound 12. (FIG. 5C) p-ERK and p-cRaf levels in BHK cells expressing KRAS^G12D treated with indicated concentrations of compound 12 or vehicle. (FIG. 5D) Proliferation profile of lung cancer cells upon treatment with increasing concentration of compound 12, monitored by a CyQuant assay. Data are averages over three independent experiments and error bars represent standard error. (FIG. 5E) GFP fluorescence lifetime from FLIM-FRET using cells expressing GFP-KRAS^G12D alone or together with RFP-cRaf, with or without treatment with 2 μM compound 12.
Cell proliferation. Potential effect of the ligands on cancer cell proliferation was tested in three lung cancer cells: SKLU-1, H1975 and H522. Cells were plated at ˜1,000 cell per well in a 96-well plate and maintained in full serum media with or without compound at 37° C. for 72 h changing the media with the compound every 24 h. Media with compound was prepared by serial dilution at concentrations indicated. Then cells were washed with PBS and frozen at −80° C. for a minimum of 24 h. Plates were thawed and CyQuant™ dye (in lysis buffer provided in the CyQuant™ cell proliferation assay kit, Invitrogen™) was added, and after a five-minute incubation, fluorescence (excitation: 480 nm emission: 520 nm) was measured with a Tecan Infinite M200 plate reader.

KRAS^G12D = experiment: Cell signaling (Western) in BHK cells expressing KRAS G12D; type: cell-based, hamster; conditions: BHK KRAS^G12D
Experimental: (§1) Cell signaling. The inhibitory potential of compounds was tested in monoclonal Baby Hamster Kidney (BHK) cell lines stably expressing monomeric green fluorescence protein (mGFP)-tagged KRAS^G12D, K-Ras^G12V and HRAS^G12V. Cells were cultured in Dulbecco's Modified Eagle Medium (DMEM, Hyclone) supplemented with 10% v/v bovine calf serum and incubated with compound or vehicle (DMSO) for 3 h without serum. Cells were then harvested in lysis buffer (50 mM Tris (pH 7.5), 75 mM NaCl, 25 mM NaF, 5 mM MgCl2, 5 mM EGTA, 1 mM dithiothreitol, 100 μM NaVO4, 1% Nonidet P40 plus protease inhibitors) and subjected to Western analysis controlling protein loading by BCA (bicinchoninic acid) assay. Lysates were resolved with Bio-Rad polyacrylamide TGX 10% gel, transferred to polyvinylidene fluoride (PVDF) membrane and immunoblotted using pan-AKT (2920S), GFP (2956S), pAKT^S473 (4060L), p-cRaf^S338 (9427S), p-ERK^T202/Y204 (4370L), ERK1/2 (4695S) or β-actin antibodies (Cell Signaling Technology). IC50 values were calculated with Prism 4-parameter fit.
Cell signaling assays identify compound 11 as a promising initial hit Western analysis was used to quickly assess the potential impact of the predicted hits on MAPK signaling, a major pathway mediated by KRAS. Specifically, ERK1/2 phosphorylation levels (p-ERK) were monitored in BHK cells stably expressing KRAS^G12D treated with vehicle (DMSO), the MEK inhibitor […] (U) or compound at four different concentrations (1-100 μM). […] Compounds 9 and 11 (structures for compounds 1-11 are provided in Appendix I, attached hereto), on the other hand, decreased p-ERK levels at concentrations ≥50 μM and ≥5 μM, respectively. To verify the latter observation, the experiments were repeated in an expanded concentration range starting from 0.1 μM. […] However, compound 9 (see Appendix I, attached hereto) increased p-ERK levels at 25 and 38 μM in contrast to the decrease observed at higher concentrations (FIG. S1B; see Appendix I, attached hereto).

[1] = Solubility in DMSO and common solvents; type: physicochemical; conditions: DMSO
[2] = target: T1, KRAS^G12D-cRaf interaction (Homo sapiens, UniProt P01116, G12D); experiment: FLIM-FRET of GFP-KRAS G12D and RFP-cRaf in BHK cells; type: cell-based, hamster; conditions: 2 μM
T1 construct: expressed in transfected cells; host or cells: BHK (baby hamster kidney) cells, transient expression
Excerpt: [formula] where P1 is polarization of free KRAS, P2 is polarization of Raf-bound KRAS, c is the total concentration of KRAS, and x the total concentration of Raf^RBD. (FIG. 2B) Amount of GFP-KRAS^G12D pulled down by GST-Raf^RBD after treatment of cell lysates with compound at the concentrations indicated (representative Westerns are shown at the top). The RBD sequence length was 1-149 and 51-131 in the fluorescence polarization and pull-down assays, respectively. (FIG. 2C) GFP fluorescence lifetime from FLIM-FRET using cells expressing GFP-KRAS^G12D alone or with RFP-Raf, with or without treatment by 1 μM compound 11. Data are shown as mean±S.E; significance estimated by one-way analysis of variance.
Fluorescence lifetime imaging (FLIM)-fluorescence resonance energy transfer (FRET). FLIM-FRET experiments were carried out using a lifetime fluorescence imaging attachment (Lambert Instruments, The Netherlands) on an inverted microscope (43). BHK cells transiently expressing mGFP-tagged KRAS^G12D (donor), alone or with mRFP-tagged cRaf^WT (acceptor) (using 1:5 ratio), were prepared as indicated in each experiment. The samples were excited using a sinusoidally modulated 3 W 470 nm light-emitting diode at 40 MHz under epi-illumination. Fluorescein was used as a lifetime reference standard. […] The phase and modulation were determined from 12 phase settings using the manufacturer's software. […]

HRAS^G12V = experiment: Cell signaling (Western) in BHK cells expressing HRAS G12V; type: cell-based, hamster; conditions: 10 μM
Experimental: as §1

Row | KRAS-Raf interaction (FLIM-FRET) [2] | SMILES | inhibition of cell proliferation relative to compound 11 (lung cancer cells) | selectivity between KRAS mutant and KRAS^WT lung cancer cells (lung cancer cells) | concentration at which p-ERK levels are decreased (KRAS^G12D) [µM] | effect on p-cRaf levels (KRAS^G12D) | solubility [1] | effect on MAPK signaling (HRAS^G12V)
1 | does not affect | Cc1nn2c(N3CCN(C)CC3)cc(-c3ccccc3)nc2c1-c1ccccc1 [Compound 12] | somewhat less effective | better selectively profile | 2 | no effect | less soluble; also recorded: solubility issues | –
2 | – | N#CC(=C(/N)Sc1ccccc1N)/C(C#N)=C(\N)Sc1ccccc1N [Compound U0126, reference compound] | – | – | – | – | – | almost completely abolished
